Converted amounts (≈) assume the structure as drawn. Where two headings read alike, the source gives them in different places.
Key:
E. faecalis = experiment: MIC (microbroth dilution); format: cell-based, Enterococcus faecalis
Experimental: (§1) All bacteria were maintained on tryptic soy agar (TSA), except Streptococcus spp., which were maintained on Columbia agar plates containing 5% horse blood. […] Bacteria were grown to stationary phase in liquid culture overnight, with shaking at 200 rpm, before being back diluted to the relevant starting concentration for each assay below. MICs were measured by the microbroth dilution method. […] Absorbance at OD600 was read on a CLARIOstar spectrophotometer (BMG Labtech) and the MIC was defined as the minimum concentration of compound where no visible growth was detected. […] MICs were also performed in the presence of the outer membrane permeator, polymyxin b nonapeptide (PMBN) following the same MIC method but with the following variation. The 2-fold dilution series of compound was prepared as above, then 50 μL of PMBN at a final concentration of 30 μg/mL was added to relevant wells, while 50 μL/well of blank media was added to the remaining wells. Bacteria were then added at 50 μL/well for a starting concentration as above. […] The MICs were read and defined as above. All animal procedures were performed by the contract research organization Pharmacology Discovery Services Taiwan in accordance with the Guide for the Care and Use of Laboratory Animals. The procedures were approved by the Institutional Ethics Committee of Pharmacology Discovery Services Taiwan, Ltd. (approval no. AB127662), in compliance with animal welfare legislation in Taiwan.

E. faecium = experiment: MIC (microbroth dilution); format: cell-based, Enterococcus faecium
Experimental: (§2) All bacteria were maintained on tryptic soy agar (TSA), except Streptococcus spp., which were maintained on Columbia agar plates containing 5% horse blood. All bacterial assays were carried out in tryptic soy broth (TSB), except for Streptococcus spp. which were grown in cation-adjusted Mueller Hinton broth containing 2.5% lysed horse blood. Bacteria were grown to stationary phase in liquid culture overnight, with shaking at 200 rpm, before being back diluted to the relevant starting concentration for each assay below. MICs were measured by the microbroth dilution method. […] Absorbance at OD600 was read on a CLARIOstar spectrophotometer (BMG Labtech) and the MIC was defined as the minimum concentration of compound where no visible growth was detected. The compounds were prepared as a DMSO stock and equivalent concentrations of DMSO had no effect on bacterial growth. MICs were also performed in the presence of the outer membrane permeator, polymyxin b nonapeptide (PMBN) following the same MIC method but with the following variation. The 2-fold dilution series of compound was prepared as above, then 50 μL of PMBN at a final concentration of 30 μg/mL was added to relevant wells, while 50 μL/well of blank media was added to the remaining wells. Bacteria were then added at 50 μL/well for a starting concentration as above. Thirty μg/mL of PMBN had no effect on bacterial growth. The MICs were read and defined as above. All animal procedures were performed by the contract research organization Pharmacology Discovery Services Taiwan in accordance with the Guide for the Care and Use of Laboratory Animals. The procedures were approved by the Institutional Ethics Committee of Pharmacology Discovery Services Taiwan, Ltd. (approval no. AB127662), in compliance with animal welfare legislation in Taiwan.

S. haemolyticus = experiment: MIC (microbroth dilution); format: cell-based, Staphylococcus haemolyticus; details: SH324
Experimental: as §2

Acinetobacter baumannii = experiment: MIC (microbroth dilution); format: cell-based
Experimental: as §2

Pseudomonas aeruginosa = experiment: MIC (microbroth dilution); format: cell-based
Experimental: as §2

E. coli = experiment: MIC (microbroth dilution); format: cell-based; details: Escherichia coli
Experimental: as §1

A. baumannii = A. baumannii efflux chequerboard assay; format: cell-based, Acinetobacter baumannii; details: for MIC: Acinetobacter baumannii
Experimental: Checkerboard assays were performed by preparing two separate 2-fold dilution series of compounds in two 96 well plates, one horizontally, one vertically. […] Plates were incubated at 37 C for 20 h and the absorbance (OD600) was read on a CLARIOstar spectrophotometer (BMG Labtech). The fractional inhibitory concentration was calculated as follows: ΣFIC = [(MIC of A in combination)/(MIC of A alone)] + [(MIC of B in combination)/(MIC of B alone)].

S. aureus NCTC 13616 = experiment: Time-kill assay; format: cell-based; details: 4x MIC, 24 hours
Experimental: Time-kill assays were performed as defined previously.

Compound `O=C(O)c1cn(C2CC2)c2cc(N3CCNCC3)c(F)cc2c1=O` [Ciprofloxacin, ciprofloxacin, reference compound] has an MIC (E. faecalis; EF602) of 64 µg/mL (≈ 193 µM), an MIC (E. faecalis; Enterococcus faecalis, NCTC775, NCTC 775, read-out: MIC) of 1 µg/mL (≈ 3.02 µM) and an MIC (E. faecalis; Enterococcus faecalis, NCTC12204, NCTC 12204, read-out: MIC) of 1 µg/mL (≈ 3.02 µM). The MIC (E. faecalis; NCTC 775) was 1 µg/mL (≈ 3.02 µM), the MIC (E. faecium; EF205) was 128 µg/mL (≈ 386 µM) and the MIC (E. faecium; NCTC 12204) was 1 µg/mL (≈ 3.02 µM). For the same compound, the MIC (S. haemolyticus) was 16 µg/mL (≈ 48.3 µM), the MIC (Acinetobacter baumannii; Acinetobacter baumannii, 86, oxa23) was 128 µg/mL (≈ 386 µM) and the MIC (Acinetobacter baumannii; Acinetobacter baumannii, 96, oxa23) was 128 µg/mL (≈ 386 µM). It also gave an MIC (Acinetobacter baumannii; Acinetobacter baumannii, A318) of 32 µg/mL (≈ 96.6 µM), an MIC (Acinetobacter baumannii; Acinetobacter baumannii, A319) of 32 µg/mL (≈ 96.6 µM) and an MIC (Acinetobacter baumannii; Acinetobacter baumannii, A600 colR) of 32 µg/mL (≈ 96.6 µM). It also gave an MIC (Acinetobacter baumannii; Acinetobacter baumannii, AB01335 adeG183::T26) of 4 µg/mL (≈ 12.1 µM), an MIC (Acinetobacter baumannii; Acinetobacter baumannii, AB05215 adeS132::T26) of 2 µg/mL (≈ 6.04 µM) and an MIC (Acinetobacter baumannii; Acinetobacter baumannii, AB05218 adeS141::T26) of 4 µg/mL (≈ 12.1 µM). It also gave an MIC (Acinetobacter baumannii; Acinetobacter baumannii, AB05219 adeR103::T26) of 4 µg/mL (≈ 12.1 µM), an MIC (Acinetobacter baumannii; Acinetobacter baumannii, AB05222 adeR160::T101) of 2 µg/mL (≈ 6.04 µM) and an MIC (Acinetobacter baumannii; Acinetobacter baumannii, AB05226 adeA165::T26) of 4 µg/mL (≈ 12.1 µM). The MIC (Acinetobacter baumannii; Acinetobacter baumannii, AB05227 adeA138::T26) was 2 µg/mL (≈ 6.04 µM), the MIC (Acinetobacter baumannii; Acinetobacter baumannii, AB05228 adeB150::T26) was 2 µg/mL (≈ 6.04 µM) and the MIC (Acinetobacter baumannii; Acinetobacter baumannii, AB05230 adeB181::T26) was 2 µg/mL (≈ 6.04 µM). For the same compound, the MIC (Acinetobacter baumannii; Acinetobacter baumannii, BAA1709, BAA-1709, read-out: MIC) was 0.25 µg/mL (≈ 0.754 µM), the MIC (Acinetobacter baumannii; Acinetobacter baumannii, BAA1710, BAA-1710 (AYE), read-out: MIC) was 64 µg/mL (≈ 193 µM) and the MIC (Acinetobacter baumannii; Acinetobacter baumannii, BAA2093, BAA-2093, read-out: MIC) was ≤ 0.125 µg/mL. It also gave an MIC (Acinetobacter baumannii; Acinetobacter baumannii, NCTC10303, NCTC 10303, read-out: MIC) of 0.5 µg/mL (≈ 1.51 µM), an MIC (Acinetobacter baumannii; Acinetobacter baumannii, NCTC12156, NCTC 12156, read-out: MIC) of 1 µg/mL (≈ 3.02 µM) and an MIC (Acinetobacter baumannii; Acinetobacter baumannii, NCTC13302, NCTC 13302, oxa24, read-out: MIC) of 32 µg/mL (≈ 96.6 µM). The MIC (Acinetobacter baumannii; Acinetobacter baumannii, NCTC13424, NCTC 13424, oxa23) was > 128 µg/mL, the MIC (Acinetobacter baumannii; Acinetobacter baumannii, UKA1, oxa23, read-out: MIC) was 8 µg/mL (≈ 24.1 µM) and the MIC (Acinetobacter baumannii; Acinetobacter baumannii, UKA2, Low resistance, read-out: MIC) was 64 µg/mL (≈ 193 µM). The MIC (Acinetobacter baumannii; Acinetobacter baumannii, UKA9, read-out: MIC) was 0.25 µg/mL (≈ 0.754 µM), the MIC (Acinetobacter baumannii; Acinetobacter baumannii, UKA12, oxa23) was > 128 µg/mL and the MIC (Acinetobacter baumannii; Acinetobacter baumannii, UKA13, oxa23) was > 128 µg/mL. It also gave an MIC (Acinetobacter baumannii; Acinetobacter baumannii, UKA15, oxa23, read-out: MIC) of 16 µg/mL (≈ 48.3 µM), an MIC (Acinetobacter baumannii; Acinetobacter baumannii, UKA19, read-out: MIC) of 8 µg/mL (≈ 24.1 µM) and an MIC (Acinetobacter baumannii; Acinetobacter baumannii, W1, read-out: MIC) of 128 µg/mL (≈ 386 µM). The MIC50 (Acinetobacter baumannii; Acinetobacter baumannii, panel of 25 A. baumannii strains) was 32 µg/mL (≈ 96.6 µM), the MIC (Acinetobacter baumannii; BAA-1710 (AYE), listed as 1) was > 128 µg/mL and the MIC (Pseudomonas aeruginosa; NCTC 13437) was 64 µg/mL (≈ 193 µM). For the same compound, the MIC (Pseudomonas aeruginosa; Pseudomonas aeruginosa, PAO1, PAO1) was 0.25 µg/mL (≈ 0.754 µM), the MIC (E. coli; 319238/UR) was > 128 µg/mL and the MIC (E. coli; LEC077) was 0.25 µg/mL (≈ 0.754 µM). The MIC (E. coli; LEC081) was 0.25 µg/mL (≈ 0.754 µM), the “MIC +50 (0.25x MIC)” value (A. baumannii; A. baumannii ATCC 17978) was 0.0017 to 0.188 µg/mL and the “MIC +50 (0.5x MIC)” value (A. baumannii; A. baumannii ATCC 17978) was 0.007 to 0.055 µg/mL. The “MIC +50 (0.25x MIC)” value (A. baumannii; A. baumannii AYE) was 3.5 to 15.5 µg/mL, the “MIC +50 (0.5x MIC)” value (A. baumannii; A. baumannii AYE) was 0.188 to 0.9 µg/mL and the MIC (A. baumannii; ATCC17978, read-out: MIC alone) was 0.25 µg/mL. For the same compound, the MIC (A. baumannii; read-out: MIC alone) was 64 µg/mL and the time-kill profile (S. aureus NCTC 13616) was “comparable bacteriostatic profiles”.

Reference: PMC13266999, “Designing Antibiotics with Inherent Resistance to Efflux as a Strategy to Revive Discovery against Multidrug-Resistant Pathogens” (Journal of Medicinal Chemistry, 2026)
